# Patent US10899758B2, “Inhibitors of the menin-MLL interaction” (Vitae Pharmaceuticals, LLC, priority 2016, dated 2021)
# Biological target: T1, menin/MLL binding (biotinylated wild-type or mutated menin and MLL-AF9 fusion protein) (Homo sapiens, UniProt O00255)
# T1 construct: biotinylated (1) wild-type menin or (2) mutated menin (described in Nature (2012) Vol. 482, pp. 542-548); fused on or other part: Biotin attached chemically (Sulfo-NHS-Biotin); no fused second protein is printed for menin
# T1 sequence (O00255 1-459 limits assumed): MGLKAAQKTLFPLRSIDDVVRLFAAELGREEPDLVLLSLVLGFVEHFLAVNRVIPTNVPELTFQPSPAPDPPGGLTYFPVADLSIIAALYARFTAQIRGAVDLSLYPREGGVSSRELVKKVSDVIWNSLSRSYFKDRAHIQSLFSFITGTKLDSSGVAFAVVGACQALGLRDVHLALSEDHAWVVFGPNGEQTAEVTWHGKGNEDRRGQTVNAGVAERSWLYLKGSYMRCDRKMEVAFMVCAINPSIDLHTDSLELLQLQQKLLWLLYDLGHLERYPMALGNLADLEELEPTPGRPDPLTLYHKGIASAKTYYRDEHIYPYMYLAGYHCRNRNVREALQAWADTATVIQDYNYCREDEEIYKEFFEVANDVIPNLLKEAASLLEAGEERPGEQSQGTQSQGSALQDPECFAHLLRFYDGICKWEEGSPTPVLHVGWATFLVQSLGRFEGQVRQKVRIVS
# Experiment: Assay 1 (Binding Assay): AlphaLISA menin/MLL binding
# Conditions: 5 nM biotinylated menin, MLL-AF9-FLAG lysate
# Experimental: Potencies of inhibitor compounds against menin/MLL binding were assessed by AlphaLISA assay using biotinylated (1) wild-type menin or (2) mutated menin (described in Nature (2012) Vol. 482, pp. 542-548) and MLL-AF9 fusion protein bearing a FLAG epitope at its C-terminus. Menin proteins were expressed in E. coli and covalently modified with biotin using EZ-Link™ Sulfo-NHS-Biotin (ThermoFisher Cat. No. 21217) according to manufacturer's protocol. MLL1-1,396 fused to AF91-92 and the C-terminal FLAG peptide was expressed in HEK293 cells and used as a lysate cleared at 21,000×g for 10 min.
# Compounds (2 μL of solutions in DMSO) were dispensed in white 96-well half-area plates (Corning Cat. No. 3693) and incubated for 30 min at RT with 5 nM biotinylated menin and appropriate amount of MLL-AF9-FLAG lysate in 40 μL of 50 mM Tris-HCl buffer pH 7.4 containing 5% (v/v) DMSO, 50 mM NaCl, 0.01% (w/v) bovine serum albumin (BSA) and 1 mM DTT. To this incubation mixture, 40 μl of AlphaLISA anti-FLAG acceptor (PerkinElmer Cat. No. AL112C) and streptavidin donor (PerkinElmer Cat. No. 6760002) beads (10 μg/mL each) was added and incubation continued at RT for 60 min. Alpha (amplified luminescent proximity homogeneous assay) signal was measured on an Envision multi-label plate reader at the end of the incubation. All steps were conducted under dim fluorescent light.
# These percent inhibition values were regressed against compound concentrations in the assay using four parameter logit non-linear curve fitting (XLFit, IDBS). The IC50 values were derived from the curve fitting as inflection points on the dose-response curves and are set out in Table 14 below.
row,IC50 [nM],SMILES
1,< 100,"CC(C)N(C)C(=O)c1cc(F)ccc1-n1cc(C2CCN(c3ccccn3)CC2)c2ccncc21 [Example 94, 5-fluoro-N-isopropyl-N-methyl-2-(3-(1-(pyridin-2-yl)piperidin-4-yl)-1H-pyrrolo[2,3-c]pyridin-1-yl)benzamide]"
2,< 100,"CC(C)N(C)C(=O)c1cc(F)ccc1-n1cc([C@H]2CC[C@@H](N3CCC[C@H]3CO)CC2)c2ccncc21 [Example 97, 5-fluoro-2-(3-(cis-4-((S)-2-(hydroxymethyl)pyrrolidin-1-yl)cyclohexyl)-1H-pyrrolo[2,3-c]pyridin-1-yl)-N-isopropyl-N-methylbenzamide]"
3,< 100,"CC(C)N(C)C(=O)c1cc(F)ccc1-n1cc([C@H]2CC[C@H](N3CC(CO)C3)CC2)c2ccncc21 [Example 98, 5-fluoro-2-(3-(trans-4-(3-(hydroxymethyl)azetidin-1-yl)cyclohexyl)-1H-pyrrolo[2,3-c]pyridin-1-yl)-N-isopropyl-N-methylbenzamide]"
4,100 to 1000,"CC(C)N(C)C(=O)c1cc(F)ccc1-n1cc([C@H]2CC[C@@H](N3CC(CO)C3)CC2)c2ccncc21 [Example 99, 5-fluoro-2-(3-(cis-4-(3-(hydroxymethyl)azetidin-1-yl)cyclohexyl)-1H-pyrrolo[2,3-c]pyridin-1-yl)-N-isopropyl-N-methylbenzamide]"
5,< 100,"CC(C)N(C)C(=O)c1cc(F)ccc1-n1cc([C@H]2CC[C@@H](N3CCC[C@@H]3CO)CC2)c2ccncc21 [Example 101, 5-fluoro-2-(3-(cis-4-((R)-2-(hydroxymethyl)pyrrolidin-1-yl)cyclohexyl)-1H-pyrrolo [2,3-c]pyridin-1-yl)-N-isopropyl-N-methylbenzamide]"
6,< 100,"CC(C)N(C)C(=O)c1cc(F)ccc1-n1cc([C@H]2CC[C@H](N3CC[C@@H](CO)C3)CC2)c2ccncc21 [Example 102, 5-fluoro-2-(3-(trans-4-((R)-3-(hydroxymethyl)pyrrolidin-1-yl)cyclohexyl)-1H-pyrrolo [2,3-c]pyridin-1-yl)-N-isopropyl-N-methylbenzamide]"
7,< 100,"CC(C)N(C)C(=O)c1cc(F)ccc1-n1cc([C@H]2CC[C@@H](N3CC[C@@H](CO)C3)CC2)c2ccncc21 [Example 103, 5-fluoro-2-(3-(cis-4-((R)-3-(hydroxymethyl)pyrrolidin-1-yl)cyclohexyl)-1H-pyrrolo[2,3-c]pyridin-1-yl)-N-isopropyl-N-methylbenzamide]"
8,100 to 1000,"CC(C)N(C)C(=O)c1cc(F)ccc1-n1cc([C@H]2CC[C@@H](N3CC[C@H](CO)C3)CC2)c2ccncc21 [Example 105, 5-fluoro-2-(3-(cis-4-((S)-3-(hydroxymethyl)pyrrolidin-1-yl)cyclohexyl)-1H-pyrrolo[2,3-c]pyridin-1-yl)-N-isopropyl-N-methylbenzamide]"
9,< 100,CC(C)N(C)C(=O)c1cc(F)ccc1-n1cc([C@H]2CC[C@@H](N3CCCCC3)CC2)c2ccncc21 [Example 107]
10,100 to 1000,"CC(C)N(C)C(=O)c1cc(F)ccc1-n1cc([C@H]2CC[C@H](N3CCC(O)CC3)CC2)c2ccncc21 [Example 108, 5-fluoro-2-(3-(trans-4-(4-hydroxypiperidin-1-yl)cyclohexyl)-1H-pyrrolo[2,3-c]pyridin-1-yl)-N-isopropyl-N-methylbenzamide]"
11,100 to 1000,"CC(C)N(C)C(=O)c1cc(F)ccc1-n1cc([C@H]2CC[C@@H](N3CCC(F)(F)CC3)CC2)c2ccncc21 [Example 111, 2-(3-(cis-4-(4,4-difluoropiperidin-1-yl)cyclohexyl)-1H-pyrrolo[2,3-c]pyridin-1-yl)-5-fluoro-N-isopropyl-N-methylbenzamide]"
12,< 100,"CC(C)N(C)C(=O)c1cc(F)ccc1-n1cc([C@H]2CC[C@H](N3CCN(CCO)CC3)CC2)c2ccncc21 [Example 114, 5-fluoro-2-(3-(trans-4-(4-(2-hydroxyethyl)piperazin-1-yl)cyclohexyl)-1H-pyrrolo[2,3-c]pyridin-1-yl)-N-isopropyl-N-methylbenzamide]"
13,100 to 1000,"CC(C)N(C)C(=O)c1cc(F)ccc1-n1cc([C@H]2CC[C@@H](N3CCN(CCO)CC3)CC2)c2ccncc21 [Example 115, 5-fluoro-2-(3-(cis-4-(4-(2-hydroxyethyl)piperazin-1-yl)cyclohexyl)-1H-pyrrolo[2,3-c]pyridin-1-yl)-N-isopropyl-N-methylbenzamide]"
14,100 to 1000,"CC(C)N(C)C(=O)c1cc(F)ccc1-n1cc(C2CCC(N3CCNC(=O)C3)CC2)c2ccncc21 (stereo not drawn) [Example 116, 5-fluoro-N-isopropyl-N-methyl-2-(3-(4-(3-oxopiperazin-1-yl)cyclohexyl)-1H-pyrrolo[2,3-c]pyridin-1-yl)benzamide]"
15,< 100,"CC(C)N(C)C(=O)c1cc(F)ccc1-n1cc([C@H]2CC[C@@H](N3CCOCC3)CC2)c2ccncc21 [Example 118, 5-fluoro-N-isopropyl-N-methyl-2-(3-(cis-4-morpholinocyclohexyl)-1H-pyrrolo[2,3-c]pyridin-1-yl)benzamide]"
16,100 to 1000,"CC(C)N(C)C(=O)c1cc(F)ccc1-n1cc([C@H]2CC[C@H](N3CCC(C(=O)O)CC3)CC2)c2ccncc21 [Example 119, 1-(trans-4-(1-(4-fluoro-2-(isopropyl(methyl)carbamoyl)phenyl)-1H-pyrrolo[2,3-c]pyridin-3-yl)cyclohexyl)piperidine-4-carboxylic acid]"
17,100 to 1000,"CC(C)N(C)C(=O)c1cc(F)ccc1-n1cc([C@H]2CC[C@@H](N3CCC(C(=O)O)CC3)CC2)c2ccncc21 [Example 120, 1-(cis-4-(1-(4-fluoro-2-(isopropyl(methyl)carbamoyl)phenyl)-1H-pyrrolo[2,3-c]pyridin-3-yl)cyclohexyl)piperidine-4-carboxylic acid]"
18,≥ 1000,"CC(C)N(C)C(=O)c1cc(F)ccc1-n1cc([C@H]2CC[C@H](NC(=O)c3ccccc3)CC2)c2ccncc21 [Example 129, 2-(3-(trans-4-benzamidocyclohexyl)-1H-pyrrolo[2,3-c]pyridine-1-yl)-5-fluoro-N-isopropyl-N-methylbenzamide]"
19,≥ 1000,"CC(C)N(C)C(=O)c1cc(F)ccc1-n1cc([C@H]2CC[C@H](NC(=O)C3CCCCC3)CC2)c2ccncc21 [Example 130, 2-(3-(trans-4-(cyclohexanecarboxamido)cyclohexyl)-1H-pyrrolo[2,3-c]pyridin-1-yl)-5-fluoro-N-isopropyl-N-methylbenzamide]"
20,< 100,"CC(C)N(C)C(=O)c1cc(F)ccc1-n1cc(C2CCN(C(=O)C3Cc4ccccc4C3)CC2)c2ccncc21 [Example 132, 2-(3-(1-(2,3-dihydro-1H-indene-2-carbonyl)piperidin-4-yl)-1H-pyrrolo[2,3-c]pyridin-1-yl)-5-fluoro-N-isopropyl-N-methylbenzamide]"
21,100 to 1000,"CC(C)N(C)C(=O)c1cc(F)ccc1-n1cc(C2CCN(C(=O)Cc3ccccc3)CC2)c2ccncc21 [Example 133, 5-fluoro-N-isopropyl-N-methyl-2-(3-(1-(2-phenylacetyl)piperidin-4-yl)-1H-pyrrolo[2,3-c]pyridin-1-yl)benzamide]"
22,100 to 1000,"CC(C)N(C)C(=O)c1cc(F)ccc1-n1c(=S)n(C2CCCN(Cc3ccc4[nH]c(=O)[nH]c4c3)C2)c2ccncc21 (stereo not drawn) [Example 135, 5-fluoro-N-isopropyl-N-methyl-2-(1-(1-((2-oxo-2,3-dihydro-1H-benzo[d]imidazol-5-yl)methyl)piperidin-3-yl)-2-thioxo-1,2-dihydro-3H-imidazo[4,5-c]pyridin-3-yl)benzamide]"
23,100 to 1000,"CC(C)N(C)C(=O)c1cc(F)ccc1-n1cc(C2CCN(C(=O)OC(C)(C)C)CC2)c2ccncc21 [Int. 1, tert-butyl 4-(1-(4-fluoro-2-(isopropyl(methyl)carbamoyl)phenyl)-1H-pyrrolo[2,3-c]pyridin-3-yl)piperidine-1-carboxylate]"
24,≥ 1000,"CC(C)N(C)C(=O)c1cc(F)ccc1-n1cc(C2CCCN(C(=O)OC(C)(C)C)C2)c2ccncc21 (stereo not drawn) [Int. 2, tert-butyl 3-(1-(4-fluoro-2-(isopropyl(methyl)carbamoyl)phenyl)-1H-pyrrolo[2,3-c]pyridin-3-yl)piperidine-1-carboxylate]"
